# Earlier results as cited in paper PMC6323428, “Elucidation of the Intestinal Absorption Mechanism of Loganin in the Human Intestinal Caco-2 Cell Model” (Evidence-based Complementary and Alternative Medicine : eCAM, 2018).
# System: human intestinal Caco-2 cells
# Design: method as in PMID 27531366
# Settings: Caco-2 cells model, chiefly passive diffusion; cited from earlier work
smiles,measurement,value
COC(=O)C1=CO[C@@H](O[C@@H]2O[C@H](CO)[C@@H](O)[C@H](O)[C@H]2O)[C@@H]2C(CO)=CC[C@H]12 [geniposide],Intestinal permeability (in words),good
